The values that follow come from US20260347338A1, “PYRIMIDINE/PYRIDINE DERIVATIVES OR SALTS THEREOF AND PHARMACEUTICAL COMPOSITIONS COMPRISING THE SAME” (YUHAN CORPORATION, priority 2023, published 2026).

pIC50: −log10 of the molar value. Where a name gives a salt, the structure may show the parent alone. Bounds are passed on as bounds.

For this assay, the target named is T1, human recombinant HPK1 (Homo sapiens, UniProt Q92918).
T1 construct: purchased BPS Bioscience
Put plainly: Inhibitory activity against human recombinant HPK1 (TR-FRET). In kind it is biochemical. Conditions: ULight-p70S6K peptide, ATP at Km, room temperature, 1 hour, 0.32 to 1000 nM compound. A digest of the protocol: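 Recombinant human HPK1 with ULight-p70S6K peptide and ATP at Km, 1 h at room temperature in HEPES pH 7.4 buffer with Mg2+, Mn2+, EGTA, DTT; compounds 0.32–1000 nM final. EDTA stop, Eu-anti-phosphopeptide TR-FRET read (665 nm); IC50 from % inhibition versus DMSO, binned A–D at 10, 50, 100 nM.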

T1 sequence (Q92918 whole entry): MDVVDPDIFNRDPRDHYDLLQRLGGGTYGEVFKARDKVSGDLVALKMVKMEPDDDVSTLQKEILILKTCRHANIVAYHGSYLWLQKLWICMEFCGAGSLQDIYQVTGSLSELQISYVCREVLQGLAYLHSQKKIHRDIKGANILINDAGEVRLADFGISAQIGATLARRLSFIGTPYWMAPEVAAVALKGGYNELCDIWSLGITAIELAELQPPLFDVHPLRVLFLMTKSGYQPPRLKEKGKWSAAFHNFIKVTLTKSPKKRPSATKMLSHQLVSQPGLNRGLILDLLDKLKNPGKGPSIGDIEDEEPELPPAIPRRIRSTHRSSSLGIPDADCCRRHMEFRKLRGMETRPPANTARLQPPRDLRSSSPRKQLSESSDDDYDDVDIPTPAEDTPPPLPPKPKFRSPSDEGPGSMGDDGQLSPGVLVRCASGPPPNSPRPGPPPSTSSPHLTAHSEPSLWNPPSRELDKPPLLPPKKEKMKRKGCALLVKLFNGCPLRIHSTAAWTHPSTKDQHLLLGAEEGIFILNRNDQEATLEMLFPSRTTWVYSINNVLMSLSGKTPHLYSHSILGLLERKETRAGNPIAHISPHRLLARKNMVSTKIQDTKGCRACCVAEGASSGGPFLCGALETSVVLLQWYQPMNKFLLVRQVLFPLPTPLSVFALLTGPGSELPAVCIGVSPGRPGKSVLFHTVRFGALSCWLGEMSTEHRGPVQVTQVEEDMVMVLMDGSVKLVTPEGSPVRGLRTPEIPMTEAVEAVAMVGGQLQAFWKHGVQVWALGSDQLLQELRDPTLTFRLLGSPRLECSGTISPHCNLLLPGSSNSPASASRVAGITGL

The term pIC50 denotes −log10 of the IC50, conventionally taken in molar units. For the compound `COc1cccc(F)c1-c1nc(Nc2cc(N3CCC[C@H](N)C3)c(-c3cnn(C(C)C)c3)cn2)ccc1C#N` [Example 328, 6-((4-((S)-3-aminopiperidin-1-yl)-5-(1-isopropyl-1H-pyrazol-4-yl)pyridin-2-yl)amino)-2-(2-fluoro-6-methoxyphenyl)nicotinonitrile hydrochloride], the pIC50 is at least 8.00.
On to `COc1cccc(F)c1-c1nc(Nc2cc(N3CCC[C@H](N)C3)c(-c3cnn(C4CC4)c3)cn2)ccc1C#N` [Example 329, 6-((4-((S)-3-aminopiperidin-1-yl)-5-(1-cyclopropyl-1H-pyrazol-4-yl)pyridin-2-yl)amino)-2-(2-fluoro-6-methoxyphenyl)nicotinonitrile hydrochloride], for which the pIC50 was at least 8.00.
For the compound `COc1cccc(F)c1-c1nc(Nc2cc(N3CCC[C@H](N)C3)c(-c3cnn(CC4CC4)c3)cn2)ccc1C#N` [Example 330, 6-((4-((S)-3-aminopiperidin-1-yl)-5-(1-(cyclopropylmethyl)-1H-pyrazol-4-yl)pyridin-2-yl)amino)-2-(2-fluoro-6-methoxyphenyl)nicotinonitrile hydrochloride], the negative logarithm of the IC50 (pIC50) is at least 8.00.
Consider `COc1cccc(F)c1-c1nc(Nc2cc(N3CC[C@@H](F)[C@H](O)C3)c(-c3cnn(C(F)F)c3)cn2)ccc1C#N` [Example 331, 6-((5-(1-(difluoromethyl)-1H-pyrazol-4-yl)-4-((3R,4R)-4-fluoro-3-hydroxypiperidin-1-yl)pyridin-2-yl)amino)-2-(2-fluoro-6-methoxyphenyl)nicotinonitrile], for which the negative logarithm of the IC50 (pIC50) was at least 8.00.
Regarding `COc1cccc(F)c1-c1nccc(Nc2cc(N3C[C@@H](N)C[C@H](F)C3)c(-c3cnn(CC(F)(F)F)c3)cn2)n1` [Example 332, N-(4-((3S,5S)-3-amino-5-fluoropiperidin-1-yl)-5-(1-(2,2,2-trifluoroethyl)-1H-pyrazol-4-yl)pyridin-2-yl)-2-(2-fluoro-6-methoxyphenyl)pyrimidin-4-amine hydrochloride], the pIC50 was at least 8.00.
Turning to `COc1cc(F)cc(F)c1-c1nccc(Nc2cc(N3C[C@@H](N)C[C@H](F)C3)c(-c3cnn(CC(F)(F)F)c3)cn2)n1` [Example 333, N-(4-((3S,5S)-3-amino-5-fluoropiperidin-1-yl)-5-(1-(2,2,2-trifluoroethyl)-1H-pyrazol-4-yl)pyridin-2-yl)-2-(2,4-difluoro-6-methoxyphenyl)pyrimidin-4-amine hydrochloride], the pIC50 was at least 8.00.
For `COc1cccc(F)c1-c1nc(Nc2cc(N3CC[C@@H](F)[C@H](N)C3)c(-c3cnn(C(F)F)c3)cn2)ccc1[N+](=O)[O-]` [Example 334, 4-((3R,4R)-3-amino-4-fluoropiperidin-1-yl)-5-(1-(difluoromethyl)-1H-pyrazol-4-yl)-N-(6-(2-fluoro-6-methoxyphenyl)-5-nitropyridin-2-yl)pyridin-2-amine hydrochloride], the negative logarithm of the IC50 (pIC50) is at least 8.00.
For `COc1cc(F)cc(F)c1-c1nccc(Nc2cc(N3C[C@@H](N)C[C@@H](F)C3)c(-c3cnn(C(C)C)c3)cn2)n1` [Example 335, N-(4-((3S,5R)-3-amino-5-fluoropiperidin-1-yl)-5-(1-isopropyl-1H-pyrazol-4-yl)pyridin-2-yl)-2-(2,4-difluoro-6-methoxyphenyl)pyrimidin-4-amine], the pIC50 was at least 8.00.
Regarding `COc1cc(F)cc(F)c1-c1nccc(Nc2cc(N3C[C@@H](N)C[C@H](F)C3)c(-c3cnn(C(C)C)c3)cn2)n1` [Example 336, N-(4-((3S,5S)-3-amino-5-fluoropiperidin-1-yl)-5-(1-isopropyl-1H-pyrazol-4-yl)pyridin-2-yl)-2-(2,4-difluoro-6-methoxyphenyl)pyrimidin-4-amine], the negative-log IC50 (pIC50) is at least 8.00.
Take `COc1cccc(F)c1-c1nc(Nc2cc(N3CC[C@@H](C)[C@H](N)C3)c(-c3cnn(C(F)F)c3)cn2)ccc1C#N` [Example 337, 6-((4-((3S,4R)-3-amino-4-methylpiperidin-1-yl)-5-(1-(difluoromethyl)-1H-pyrazol-4-yl)pyridin-2-yl)amino)-2-(2-fluoro-6-methoxyphenyl)-nicotinonitrile hydrochloride]: the pIC50 was at least 8.00.
Take `COc1cc(F)cc(F)c1-c1nc(Nc2cc(N3CC[C@@H](C)[C@H](N)C3)c(-c3cnn(C(F)F)c3)cn2)ccc1C#N` [Example 338, 6-((4-((3S,4R)-3-amino-4-methylpiperidin-1-yl)-5-(1-(difluoromethyl)-1H-pyrazol-4-yl)pyridin-2-yl)amino)-2-(2,4-difluoro-6-methoxyphenyl)nicotinonitrile hydrochloride]: the negative logarithm of the IC50 (pIC50) is at least 8.00.
For `COc1cc(F)cc(F)c1-c1nccc(Nc2cc(N3CC[C@@H](F)[C@H](N)C3)c(-c3cnn(C(C)C)c3)cn2)n1` [Example 339, N-(4-((3R,4R)-3-amino-4-fluoropiperidin-1-yl)-5-(1-isopropyl-1H-pyrazol-4-yl)pyridin-2-yl)-2-(2,4-difluoro-6-methoxyphenyl)pyrimidin-4-amine hydrochloride], the pIC50 was at least 8.00.
On to `COc1cc(F)cc(F)c1-c1nc(Nc2cc(N3CC[C@@H](F)[C@H](N)C3)c(-c3cnn(C(C)C)c3)cn2)ccc1C#N` [Example 340, 6-((4-((3R,4R)-3-amino-4-fluoropiperidin-1-yl)-5-(1-isopropyl-1H-pyrazol-4-yl)pyridin-2-yl)amino)-2-(2,4-difluoro-6-methoxyphenyl)nicotinonitrile hydrochloride], for which the negative-log IC50 (pIC50) was at least 8.00.
Turning to `COc1cccc(F)c1-c1nc(Nc2cc(N3CC[C@@H](F)[C@H](N)C3)c(-c3cnn(C(F)F)c3)cn2)ccc1F` [Example 341, 4-((3R,4R)-3-amino-4-fluoropiperidin-1-yl)-5-(1-(difluoromethyl)-1H-pyrazol-4-yl)-N-(5-fluoro-6-(2-fluoro-6-methoxyphenyl)pyridin-2-yl)pyridin-2-amine hydrochloride], the negative logarithm of the IC50 (pIC50) was at least 8.00.
With “(S)-1-(6′-ethoxy-6-((2-(2-fluoro-6-methoxyphenyl)pyrimidin-4-yl)amino)-[3,3′-bipyridin]-4-yl)piperidin-3-ol [Example 56]”, the pIC50 was 7.30 to 8.00.
Consider “(S)-N-(4-(3-aminopiperidin-1-yl)-5-((tetrahydro-2H-pyran-4-yl)ethynyl)pyridin-2-yl)-2-(7-fluoroquinoxalin-6-yl)pyrimidin-4-amine hydrochloride [Example 90]”, for which the negative-log IC50 (pIC50) was at least 8.00.
